Measurements published in patent US20100063026A1, “ANTIBACTERIAL QUINOLINE DERIVATIVES” (priority 2007, published 2010).
In brackets after ≈: the same amount, converted by molar mass.

Tests used:
[1] = system: Staphylococcus aureus (ATCC29213); test: Microtitre plate IC90 determination against non-mycobacterial strains: S. aureus; format: cell-based; conditions: 90% inhibitory concentration for bacterial growth, 37° C., resazurin fluorescence; for IC90 STA 1 B29213: 24 hours; for IC90: Staphylococcus aureus, ATCC29213, 24 h, read-out: IC90 STA 1 B29213
Procedure: (§1) The bacteria used in this study were grown overnight in flasks containing 100 ml Mueller-Hinton Broth (Becton Dickinson-cat. no. 275730) in sterile de-ionized water, with shaking, at 37° C. Stocks (0.5 ml/tube) were stored at -70° C. until use. Bacteria titrations were performed in microtiter plates to detect the TCID50, in which the TCID50 represents the dilution that gives rise to bacterial growth in 50% of inoculated cultures. In general, an inoculum level of approximately 100 TCID50 was used for susceptibility testing. […] Therefore resazurin (0.6 mg/ml) was added in a volume of 20 μl to all wells 3 hours after inoculation, and the plates were re-incubated overnight. A change in colour from blue to pink indicated the growth of bacteria.

[2] = system: Streptococcus pneumoniae (ATCC6305); test: Microtitre plate IC90 determination against non-mycobacterial strains: S. pneumoniae; format: cell-based; conditions: 90% inhibitory concentration for bacterial growth, 37° C., resazurin fluorescence; for IC90 SPN 1 6305: 24 hours; for IC90: Streptococcus pneumoniae, ATCC6305, 24 h, read-out: IC90 SPN 1 6305
Procedure: as §1

M. smegmatis ATCC607 = test: In-vitro anti-bacterial activity against strain M. smegmatis ATCC607; conditions: for IC90: Mycolicibacterium smegmatis, ATCC607, 48 h, read-out: IC90 MSM 1 ATCC607, 90% inhibitory concentration for bacterial growth, 37° C., Alamar Blue fluorescence; for IC90 MSM 1 ATCC607: 90% inhibitory concentration for bacterial growth, 48 hours, 37° C., Alamar Blue fluorescence
Procedure: Flat-bottom, sterile 96-well plastic microtiter plates were filled with 180 μl of sterile deionized water, supplemented with 0.25% BSA. Subsequently, stock solutions (7.8× final test concentration) of compounds were added in 45 μl volumes to a series of duplicate wells in column 2 so as to allow evaluation of their effects on bacterial growth. Serial five-fold dilutions (45 μl in 180 μl) were made directly in the microtiter plates from column 2 to 11 using a customised robot system (Zymark Corp., Hopkinton, Mass.). Pipette tips were changed after every 3 dilutions to minimize pipetting errors with high hydrophobic compounds. Untreated control samples with (column 1) and without (column 12) inoculum were included in each microtiter plate. Approximately 250 CFU per well of bacteria inoculum, in a volume of 100 μl in 2.8× Mueller-Hinton broth medium, was added to the rows A to H, except column 12. The same volume of broth medium without inoculum was added to column 12 in row A to H. The cultures were incubated at 37° C. for 48 hours in a humidified 5% CO2 atmosphere (incubator with open air valve and continuous ventilation). At the end of incubation, two days after inoculation, the bacterial growth was quantitated fluorometrically. Therefore Alamar Blue (10×) was added to all wells in a volume of 20 μl and plates were incubated for another 2 hours at 50° C.
The fluorescence was read in a computer-controlled fluorometer (Cytofluor, Biosearch) at an excitation wavelength of 530 nm and an emission wavelength of 590 nm (gain 30). The percentage growth inhibition achieved by the compounds was calculated according to standard methods and expressed as IC90 (μg/ml) which defines the 90% inhibitory concentration for bacterial growth.

| SMILES | IC90 STA 1 B29213 [1] | IC90 SPN 1 6305 [2] | IC90 (M. smegmatis ATCC607) | IC90 [2] | IC90 MSM 1 ATCC607 (M. smegmatis ATCC607) | IC90 [1] |
| --- | --- | --- | --- | --- | --- | --- |
| COc1nc2ccc(Br)cc2cc1C(c1ccccc1)C(O)(CCCCN1CC2CC1CN2Cc1ccccc1)c1ccc2ccccc2c1 (stereo not drawn) [Compound 22] | 9.2 µg/mL (≈ 12.7 µM) | 2.9 µg/mL (≈ 3.99 µM) | 0.6 µg/mL (≈ 0.826 µM) | – | – | – |
| COc1nc2ccc(Br)cc2cc1C(c1ccccc1)C(O)(CCCCN1CC2CC1CN2Cc1ccccc1)c1ccc2ccccc2c1 (single isomer, unassigned) [Compound 20] | 11.5 µg/mL (≈ 15.8 µM) | – | – | 0.6 µg/mL (≈ 0.826 µM) | 2.3 µg/mL (≈ 3.16 µM) | – |
| COc1nc2ccc(Br)cc2cc1C(c1ccccc1)C(O)(CCCCN(C)CCN(C)C)c1ccccc1 (single isomer, unassigned) [Compound 51] | – | – | 9.4 µg/mL (≈ 15.9 µM) | 9.4 µg/mL (≈ 15.9 µM) | – | 9.4 µg/mL (≈ 15.9 µM) |
| COc1nc2ccc(Br)cc2cc1C(c1ccccc1)C(O)(CCCCN1CCCN(C)CC1)c1ccc2ccccc2c1 (stereo not drawn) [Compound 35c] | 2.1 µg/mL (≈ 3.22 µM) | 0.4 µg/mL (≈ 0.613 µM) | – | – | 1.5 µg/mL (≈ 2.3 µM) | – |
| COc1nc2ccc(Br)cc2cc1C(c1ccccc1)C(O)(CCCCN1CCC(N2CCCCC2)CC1)CCc1ccccc1 (single isomer, unassigned) [Compound 10] | 2.2 µg/mL (≈ 3.21 µM) | 2.2 µg/mL (≈ 3.21 µM) | – | – | 2.4 µg/mL (≈ 3.5 µM) | – |
| COc1nc2ccc(Br)cc2cc1C(c1ccccc1)C(O)(CCCCCN1CCCN(C)CC1)c1ccc2ccccc2c1 (single isomer, unassigned) [Compound 54] | – | 2.1 µg/mL (≈ 3.15 µM) | 2.1 µg/mL (≈ 3.15 µM) | – | – | 2.1 µg/mL (≈ 3.15 µM) |
| COc1nc2ccc(Br)cc2cc1C(c1ccccc1)C(O)(CCCCN1CCN(C2CCN(Cc3ccccc3)C2)CC1)c1ccc2ccccc2c1 (single isomer, unassigned) [Compound 30] | 2.5 µg/mL (≈ 3.19 µM) | 2.5 µg/mL (≈ 3.19 µM) | – | – | 2.5 µg/mL (≈ 3.19 µM) | – |
| COc1nc2ccc(Br)cc2cc1C(c1ccccc1)C(O)(CCCCN(C)CCc1ccccn1)c1ccccc1 (stereo not drawn) [Compound 7] | 2.0 µg/mL (≈ 3.2 µM) | 2.0 µg/mL (≈ 3.2 µM) | – | – | 2.0 µg/mL (≈ 3.2 µM) | – |
| COc1ccc(N2CCN(CCCCC(O)(c3ccc4ccccc4c3)C(c3ccccc3)c3cc4cc(Br)ccc4nc3OC)CC2)cc1 (single isomer, unassigned) [Compound 26] | – | – | 18.4 µg/mL (≈ 25.2 µM) | 18.4 µg/mL (≈ 25.2 µM) | – | 18.4 µg/mL (≈ 25.2 µM) |
| COc1nc2ccc(Br)cc2cc1C(c1ccccc1)C(O)(CCCCN1CCCN(C)CC1)c1ccc2ccccc2c1 (stereo not drawn) [Compound 34d] | 2.1 µg/mL (≈ 3.22 µM) | 0.4 µg/mL (≈ 0.613 µM) | – | – | 2.1 µg/mL (≈ 3.22 µM) | – |
| COc1nc2ccc(Br)cc2cc1C(c1ccccc1)C(O)(CCCCN1CC2CC1CN2C1CCN(C)CC1)c1ccc2ccccc2c1 (single isomer, unassigned) [Compound 63] | – | – | 2.3 µg/mL (≈ 3.13 µM) | – | – | 2.3 µg/mL (≈ 3.13 µM) |
| COc1nc2ccc(Br)cc2cc1C(c1ccccc1)C(O)(CCCCNCCN(C)C)c1ccccc1 (single isomer, unassigned) [Compound 66] | 1.8 µg/mL (≈ 3.12 µM) | – | – | – | – | – |
| COc1nc2ccc(Br)cc2cc1C(c1ccccc1)C(O)(CCCCNCCN(C)C)c1ccccc1 (single isomer, unassigned) [Compound 65] | – | – | 1.8 µg/mL (≈ 3.12 µM) | – | – | 1.8 µg/mL (≈ 3.12 µM) |
| COc1nc2ccc(Br)cc2cc1C(c1ccccc1)C(O)(CCCCN(C)C1CCN(C)CC1)c1ccccc1 (single isomer, unassigned) [Compound 5] | 7.8 µg/mL (≈ 12.6 µM) | 2.0 µg/mL (≈ 3.24 µM) | – | – | 2.0 µg/mL (≈ 3.24 µM) | – |
| COc1nc2ccc(Br)cc2cc1C(c1ccccc1)C(O)(CCCCN(C)CCc1ccccn1)c1ccccc1 (stereo not drawn) [Compound 6] | – | – | 2 µg/mL (≈ 3.2 µM) | 2.2 µg/mL (≈ 3.52 µM) | – | 2 µg/mL (≈ 3.2 µM) |
| COc1nc2ccc(Br)cc2cc1C(c1ccccc1)C(O)(CCCCN1CC2CC1CN2CC(C)C)c1ccc2ccccc2c1 (single isomer, unassigned) [Compound 53] | – | – | 1.6 µg/mL (≈ 2.31 µM) | 0.1 µg/mL (≈ 0.144 µM) | – | 2.2 µg/mL (≈ 3.18 µM) |
| COc1nc2ccc(Br)cc2cc1C(c1ccccc1)C(O)(CCCCN1CC2CC1CN2Cc1ccccc1)CCCc1ccccc1 (single isomer, unassigned) [Compound 14] | – | – | 3.6 µg/mL (≈ 5.01 µM) | 2.6 µg/mL (≈ 3.62 µM) | – | 11.4 µg/mL (≈ 15.9 µM) |
| COc1nc2ccc(Br)cc2cc1C(c1ccc(Cl)cc1)C(O)(CCCCN1CC2CC1CN2Cc1ccccc1)c1ccc2ccccc2c1 (single isomer, unassigned) [Compound 37] | 2.7 µg/mL (≈ 3.55 µM) | 0.5 µg/mL (≈ 0.657 µM) | – | – | 2.1 µg/mL (≈ 2.76 µM) | – |
| COc1nc2ccc(Br)cc2cc1C(c1ccccc1)C(O)(CCCCN1CCC1)c1ccccc1 (single isomer, unassigned) [Compound 42] | 8.6 µg/mL (≈ 15.8 µM) | 4.3 µg/mL (≈ 7.88 µM) | – | – | 2.2 µg/mL (≈ 4.03 µM) | – |

| SMILES | IC90 STA 1 B29213 [1] | IC90 SPN 1 6305 [2] | IC90 (M. smegmatis ATCC607) | IC90 [2] | IC90 MSM 1 ATCC607 (M. smegmatis ATCC607) | IC90 [1] |
| --- | --- | --- | --- | --- | --- | --- |
| COc1nc2ccc(Br)cc2cc1C(c1ccccc1)C(O)(CCCCN1CC2CC1CN2Cc1ccccc1)CCc1ccccc1 (single isomer, unassigned) [Compound 12] | 11.2 µg/mL (≈ 15.9 µM) | – | – | 2.2 µg/mL (≈ 3.12 µM) | 2.2 µg/mL (≈ 3.12 µM) | – |
| COc1nc2ccc(Br)cc2cc1C(c1ccccc1)C(O)(CCCCN1CC2CC1CN2Cc1ccccc1)c1ccccc1 (single isomer, unassigned) [Compound 49] | 2.1 µg/mL (≈ 3.1 µM) | 0.3 µg/mL (≈ 0.443 µM) | – | – | 2.1 µg/mL (≈ 3.1 µM) | – |
| COc1nc2ccc(Br)cc2cc1C(c1ccccc1)C(O)(CCCCN1CC2CC1CN2CC(C)C)c1ccc2ccccc2c1 (stereo not drawn) [Compound 52] | – | – | 2.2 µg/mL (≈ 3.18 µM) | 0.5 µg/mL (≈ 0.722 µM) | – | 2.2 µg/mL (≈ 3.18 µM) |
| COc1nc2ccc(Br)cc2cc1C(c1ccccc1)C(O)(CCCCN1CC2CC1CN2Cc1ccccc1)CCc1ccccc1 (single isomer, unassigned) [Compound 13] | 2.2 µg/mL (≈ 3.12 µM) | 2.5 µg/mL (≈ 3.55 µM) | – | – | 5.6 µg/mL (≈ 7.95 µM) | – |
| COc1nc2ccc(Br)cc2cc1C(c1ccccc1)C(O)(CCCCCN1CCCN(C)CC1)c1ccc2ccccc2c1 (single isomer, unassigned) [Compound 55] | 2.1 µg/mL (≈ 3.15 µM) | 0.4 µg/mL (≈ 0.6 µM) | – | – | 2.1 µg/mL (≈ 3.15 µM) | – |
| COc1nc2ccc(Br)cc2cc1C(c1ccccc1)C(O)(CCCCc1ccccc1)CCCCN1CC2CC1CN2Cc1ccccc1 (single isomer, unassigned) [Compound 16] | 7.3 µg/mL (≈ 9.96 µM) | – | 0.6 µg/mL (≈ 0.819 µM) | 1.5 µg/mL (≈ 2.05 µM) | – | – |
| COc1nc2ccc(Br)cc2cc1C(c1ccccc1)C(O)(CCCCN1CCC1)c1ccccc1 (single isomer, unassigned) [Compound 41] | 1.7 µg/mL (≈ 3.12 µM) | 1.7 µg/mL (≈ 3.12 µM) | 1.7 µg/mL (≈ 3.12 µM) | – | – | – |
| COc1nc2ccc(Br)cc2cc1C(c1ccccc1)C(O)(CCCCN1CC2CC1CN2CCN(C)C)c1ccc2ccccc2c1 (single isomer, unassigned) [Compound 62] | 2.2 µg/mL (≈ 3.11 µM) | – | – | – | – | – |
| COc1nc2ccc(Br)cc2cc1C(c1ccccc1)C(O)(CCCCN1CC2CC1CN2C)c1ccc2ccccc2c1 (single isomer, unassigned) [Compound 57] | 2.3 µg/mL (≈ 3.53 µM) | – | – | – | 2.1 µg/mL (≈ 3.23 µM) | – |
| COc1nc2ccc(Br)cc2cc1C(c1ccccc1)C(O)(CCCCN1CC2CC1CN2Cc1ccccc1)c1ccc2ccccc2c1 (single isomer, unassigned) [Compound 21] | 2.3 µg/mL (≈ 3.16 µM) | 0.6 µg/mL (≈ 0.826 µM) | – | – | 5.8 µg/mL (≈ 7.98 µM) | – |
| COc1nc2ccc(Br)cc2cc1C(c1ccccc1)C(O)(CCCCc1ccccc1)CCCCN1CC2CC1CN2Cc1ccccc1 (single isomer, unassigned) [Compound 17] | 2.3 µg/mL (≈ 3.14 µM) | 0.8 µg/mL (≈ 1.09 µM) | – | – | 0.7 µg/mL (≈ 0.955 µM) | – |
| COc1ccc(N2CCN(CCCCC(O)(c3ccc4ccccc4c3)C(c3ccccc3)c3cc4cc(Br)ccc4nc3OC)CC2)cc1 (single isomer, unassigned) [Compound 27] | 18.4 µg/mL (≈ 25.2 µM) | – | – | – | – | – |
| CN1CCCN(CCCCC(O)(c2ccc3ccccc3c2)C(c2ccccc2)c2cc3cc(Br)ccc3[nH]c2=O)CC1 (single isomer, unassigned) [Compound 45] | 2.3 µg/mL (≈ 3.6 µM) | – | 2 µg/mL (≈ 3.13 µM) | – | – | – |
| COc1nc2ccc(Br)cc2cc1C(c1ccccc1)C(O)(CCCCN1CC2CC1CN2C)c1ccc2ccccc2c1 (single isomer, unassigned) [Compound 56] | – | – | 2.1 µg/mL (≈ 3.23 µM) | – | – | 2.3 µg/mL (≈ 3.53 µM) |
| COc1nc2ccc(Br)cc2cc1C(c1ccccc1)C(O)(CCCCNC1CC2CCC1C2)c1ccccc1 (stereo not drawn) [Compound 60] | – | – | 1.9 µg/mL (≈ 3.17 µM) | – | – | 1.9 µg/mL (≈ 3.17 µM) |
| COc1nc2ccc(Br)cc2cc1C(c1ccccc1)C(O)(CCCCN1CC2CC1CN2CCN(C)C)c1ccc2ccccc2c1 (single isomer, unassigned) [Compound 61] | – | – | 2.2 µg/mL (≈ 3.11 µM) | – | – | 2.2 µg/mL (≈ 3.11 µM) |
| COc1nc2ccc(Br)cc2cc1C(c1ccccc1)C(O)(CCCCN1CC2CC1CN2C1CCN(C)CC1)c1ccc2ccccc2c1 (single isomer, unassigned) [Compound 64] | 2.3 µg/mL (≈ 3.13 µM) | – | – | – | 1.3 µg/mL (≈ 1.77 µM) | – |
| COc1nc2ccc(Br)cc2cc1C(c1ccccc1)C(O)(CCCCN1CCCN(C)CC1)c1ccc2ccccc2c1 (single isomer, unassigned) [Compound 34] | – | – | 2.1 µg/mL (≈ 3.22 µM) | – | – | 2.1 µg/mL (≈ 3.22 µM) |
